Measurements: US11649227B2, “Allosteric chromenone inhibitors of phosphoinositide 3-kinase (PI3K) for the treatment of disease” (Petra Pharma Corporation, priority 2020, dated 2023)

Tests used:
[1] = biological target: human full length PIK3CA Wild-type (p110α/p85α complex) (Homo sapiens (Human), UniProt P42336); assay: PI3K-Alpha kinase (PIK3CA) activity, wild-type, Transcreener ADP2 FI assay; details: PI3K-α (PIK3CA) wild-type, biochemical
Description: (§1) PI3K-Alpha kinase (PIK3CA) activity, wild-type and H1047R mutant and determining IC50 values for inhibitors
(§2) Recombinant, catalytically active human full length PIK3KA Wild-type and H1047R mutant were purchased as 1:1 complex of N-terminal 6×his tagged p110<(catalytic) and untagged p85<(regulatory subunit) from EMD Millipore Sigma (cat. no. 14-602M and 14-792M, respectively). The enzyme stocks were diluted to 5× stocks in buffer (20 mM HEPES pH 7.4, 100 mM NaCl, 0.5 mM EGTA, 0.01% triton-x-100) just before use. PIP2diC8 (Avanti Polar Lipids Inc., cat. no. 850185) or phosphoinositol-4,5-bisphosphate with phosphoserine (PIP2:PS) membrane (Thermo Fisher Scientific, cat. no. PV5100) was used as lipid substrates. PIP2diC8 lyophilized powder and PIP2:PS (1:19) membrane stock (1 mM in PIP2) were separately dissolved in milliQ water to a concentration of 250 uM and stored in −20° C. 10 mM stocks of compounds were serially diluted (3×) in neat DMSO and stored in a dessicator at room temperature. 5× compound stocks in 25% DMSO were prepared fresh from neat DMSO stocks. Wild-type (WT) and H1047R mutant protein, along with buffer components (except ATP), were incubated with or without compound at 27° C. for 1h. After incubation, the reaction was initiated by the addition of 5 uL of 125 uM ATP. A typical assay mixture (25 uL) comprised 40 mM HEPES buffer, pH 7.4, 25 mM MgCl2, 0.01% v/v triton-X-100, 5% v/v DMSO, 20 mM NaCl, 1-5 nM wt or H1047R, 25 uM ATP, and 50 uM PTP2diC8 or PTP2 in membrane. The reaction was allowed to proceed until about […] (2.5 uM ADP) after which time, 10 uL of reaction mixture was quenched with 25 uL of transcreener reagent (Transcreener ADP2 FI assay kit, BellBrook labs, Cat. No. 3013). The contents were incubated at rt for 1h and fluorescence was measured using a plate reader (Paradigm, Molecular Devices). The same assay was also run at pH 6.0 or 6.4 using MOPS buffer (Fisher BioReagents, CAS 1132-61-2). A calibration curve was generated under identical buffer conditions with varying ADP amounts. Using that, the observed fluorescence was converted to uM ADP. A plot between [ADP] and log[I] yielded the dose-response curves that enabled the calculation of IC50s.

[2] = biological target: human full length PIK3CA H1047R mutant (p110α/p85α complex) (Homo sapiens (Human), UniProt P42336, H1047R); assay: PI3K-Alpha kinase (PIK3CA) activity, H1047R mutant, Transcreener ADP2 FI assay; details: PI3K-α (PIK3CA) H1047R mutant, biochemical
Sequence of human full length PIK3CA H1047R mutant (p110α/p85α complex) (P42336 whole entry H1047R): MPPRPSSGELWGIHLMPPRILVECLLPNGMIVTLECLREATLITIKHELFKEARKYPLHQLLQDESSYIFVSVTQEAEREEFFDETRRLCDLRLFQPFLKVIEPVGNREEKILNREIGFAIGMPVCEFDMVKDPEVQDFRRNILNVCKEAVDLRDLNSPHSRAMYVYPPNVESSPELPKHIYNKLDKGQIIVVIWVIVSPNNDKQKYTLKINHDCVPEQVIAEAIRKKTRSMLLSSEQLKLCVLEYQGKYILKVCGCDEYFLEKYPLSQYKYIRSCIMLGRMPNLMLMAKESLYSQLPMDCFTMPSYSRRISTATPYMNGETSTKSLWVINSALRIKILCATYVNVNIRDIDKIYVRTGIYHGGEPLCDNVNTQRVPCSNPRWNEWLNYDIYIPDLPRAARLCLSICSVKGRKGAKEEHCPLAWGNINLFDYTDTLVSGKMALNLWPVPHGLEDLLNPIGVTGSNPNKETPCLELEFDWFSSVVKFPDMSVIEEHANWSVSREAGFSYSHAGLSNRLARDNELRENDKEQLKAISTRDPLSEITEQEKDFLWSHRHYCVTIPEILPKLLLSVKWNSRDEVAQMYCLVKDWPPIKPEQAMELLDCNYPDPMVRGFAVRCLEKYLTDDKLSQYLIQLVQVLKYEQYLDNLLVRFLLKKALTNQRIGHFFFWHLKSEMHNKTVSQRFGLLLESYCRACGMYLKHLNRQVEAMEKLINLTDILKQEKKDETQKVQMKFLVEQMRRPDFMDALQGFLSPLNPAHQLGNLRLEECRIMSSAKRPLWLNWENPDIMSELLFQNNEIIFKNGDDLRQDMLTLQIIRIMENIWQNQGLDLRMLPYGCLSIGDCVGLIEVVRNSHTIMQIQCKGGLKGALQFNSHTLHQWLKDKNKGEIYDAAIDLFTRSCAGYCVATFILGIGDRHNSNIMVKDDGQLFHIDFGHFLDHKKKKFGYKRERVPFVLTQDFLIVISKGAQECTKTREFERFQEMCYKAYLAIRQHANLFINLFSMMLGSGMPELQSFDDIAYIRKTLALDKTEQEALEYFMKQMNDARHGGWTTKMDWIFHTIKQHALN
Sequence of human full length PIK3CA H1047R mutant (p110α/p85α complex) (P27986 whole entry partner): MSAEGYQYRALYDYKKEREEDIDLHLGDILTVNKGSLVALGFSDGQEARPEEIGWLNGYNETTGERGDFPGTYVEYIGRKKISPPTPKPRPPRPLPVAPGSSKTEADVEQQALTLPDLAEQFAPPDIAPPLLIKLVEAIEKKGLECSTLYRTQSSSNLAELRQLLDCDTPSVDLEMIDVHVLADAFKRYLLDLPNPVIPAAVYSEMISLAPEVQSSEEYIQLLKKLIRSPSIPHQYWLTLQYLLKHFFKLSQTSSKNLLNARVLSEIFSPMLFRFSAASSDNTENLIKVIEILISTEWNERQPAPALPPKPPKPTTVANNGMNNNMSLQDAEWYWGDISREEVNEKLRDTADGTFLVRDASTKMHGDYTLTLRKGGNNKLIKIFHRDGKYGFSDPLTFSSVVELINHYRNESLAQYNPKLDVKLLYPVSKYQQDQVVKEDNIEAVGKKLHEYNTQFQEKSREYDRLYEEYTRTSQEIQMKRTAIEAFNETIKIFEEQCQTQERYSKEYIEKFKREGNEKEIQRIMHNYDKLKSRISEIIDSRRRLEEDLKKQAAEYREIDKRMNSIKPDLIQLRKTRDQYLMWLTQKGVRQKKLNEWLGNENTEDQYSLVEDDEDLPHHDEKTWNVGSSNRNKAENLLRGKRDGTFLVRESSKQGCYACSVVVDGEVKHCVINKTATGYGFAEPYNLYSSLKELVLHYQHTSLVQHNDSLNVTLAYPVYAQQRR
Description: as §1, §2

Sequence of human full length PIK3CA Wild-type (p110α/p85α complex) (P42336 whole entry): as the sequence (P42336 whole entry H1047R) above, with R1047H counted along it
Sequence of human full length PIK3CA Wild-type (p110α/p85α complex) (P27986 whole entry partner): as the sequence (P27986 whole entry partner) above

CC(Nc1ccccc1C(=O)O)c1cc(C(F)(F)F)cc2c(=O)cc(N3Cc4ccccc4C3)oc12 (single isomer, unassigned) [Example 342, 2-[1-[2-Isoindolin-2-yl-4-oxo-6-(trifluoromethyl)chromen-8-yl]ethylamino]benzoic acid]
IC50 [1]: < 500 nM | IC50 [2]: < 500 nM

Cc1cc(C(C)Nc2ccccc2C(=O)O)c2oc(N3C4CCCC3C4)cc(=O)c2c1 (single isomer, unassigned; isomer 2) [Example 425, 2-[1-[2-(6-Azabicyclo[3.1.1]heptan-6-yl)-6-methyl-4-oxo-chromen-8-yl]ethylamino]benzoic acid, Isomer 2]
IC50 [1]: 1000 to 5000 nM | IC50 [2]: < 500 nM

Cc1cc([C@@H](C)Nc2ccnnc2C(=O)O)c2oc(N3CCC(C)(C)CC3)cc(=O)c2c1 [Example 251]
IC50 [1]: 1000 to 5000 nM | IC50 [2]: 1000 to 5000 nM

Cc1cc(C(C)Nc2ccccc2C(=O)O)c2oc(N3CCC(C(F)(F)F)CC3)cc(=O)c2c1 (centres unmarked) [Example 74, 2-[1-[6-Methyl-4-oxo-2-[4-(trifluoromethyl)-1-piperidyl]chromen-8-yl]ethylamino]benzoic acid]
IC50 [1]: 5000 to 10000 nM | IC50 [2]: 500 to 1000 nM

Cc1cc(C(C)Nc2ccccc2C(=O)O)c2oc(N3CC(c4ccccc4)C3)cc(=O)c2c1 (single isomer, unassigned) [Example 236, 2-[1-[6-Methyl-4-oxo-2-(3-phenylazetidin-1-yl)chromen-8-yl]ethylamino]benzoic acid 2,2,2-trifluoroacetic acid]
IC50 [1]: 500 to 1000 nM | IC50 [2]: < 500 nM

Cc1c(N2Cc3ccc(F)cc3C2)oc2c(C(C)Nc3ccccc3C(=O)O)cc(C(F)(F)F)cc2c1=O (single isomer, unassigned) [Example 343, 2-[1-[2-(5-Fluoroisoindolin-2-yl)-3-methyl-4-oxo-6-(trifluoromethyl)chromen-8-yl]ethylamino]benzoic acid]
IC50 [1]: 500 to 1000 nM | IC50 [2]: < 500 nM

Cc1c(N2Cc3ccccc3C2)oc2c(C(C)Nc3ccccc3C(=O)O)cc(F)cc2c1=O (single isomer, unassigned) [Example 324, 2-[1-(6-Fluoro-2-isoindolin-2-yl-3-methyl-4-oxo-chromen-8-yl)ethylamino]benzoic acid]
IC50 [1]: < 500 nM | IC50 [2]: < 500 nM

Cc1cc(C(C)Nc2ccccc2C(=O)O)c2oc(N3Cc4ccccc4C3)cc(=O)c2c1 (single isomer, unassigned) [Example 362, 2-[1-(2-Isoindolin-2-yl-6-methyl-4-oxo-chromen-8-yl)ethylamino]benzoic acid]
IC50 [1]: 500 to 1000 nM | IC50 [2]: < 500 nM

Cc1cc(C(C)Nc2ccccc2S(=O)(=O)C(F)F)c2oc(N3CCC(C)(C)CC3)cc(=O)c2c1 (centres unmarked) [Example 38, 8-[1-[2-(Difluoromethylsulfonyl)anilino]ethyl]-2-(4,4-dimethyl-1-piperidyl)-6-methyl-chromen-4-one]
IC50 [1]: 500 to 1000 nM | IC50 [2]: 500 to 1000 nM

CC(Nc1ccccc1C(=O)O)c1cc(C(F)(F)F)cc2c(=O)cc(N3CCC(C)(C)CC3)oc12 (centres unmarked) [Example 57, 2-[1-[2-(4,4-dimethyl-1-piperidyl)-4-oxo-6-(trifluoromethyl)chromen-8-yl]ethylamino]benzoic acid]
IC50 [1]: 1000 to 5000 nM | IC50 [2]: 500 to 1000 nM

Cc1c(N2Cc3ccccc3C2)oc2c(C(C)Nc3ccccc3C(=O)O)cc(C(F)(F)F)cc2c1=O (single isomer, unassigned) [Example 348, 2-[1-[2-Isoindolin-2-yl-3-methyl-4-oxo-6-(trifluoromethyl)chromen-8-yl]ethylamino]benzoic acid]
IC50 [1]: 500 to 1000 nM | IC50 [2]: < 500 nM

Cc1cc(C(C)Nc2ccccc2C(=O)O)c2oc(N3CCCOCC3)cc(=O)c2c1 (centres unmarked) [Example 151, 2-[1-[6-Methyl-2-(1,4-oxazepan-4-yl)-4-oxo-chromen-8-yl]ethylamino]benzoic acid]
IC50 [1]: 1000 to 5000 nM | IC50 [2]: 500 to 1000 nM

Cc1cc(C(C)Nc2ccccc2C(=O)O)c2oc(N3CCC(c4ccncc4)C3)cc(=O)c2c1 (single isomer, unassigned) [Example 194, 2-[1-[6-Methyl-4-oxo-2-[3-(4-pyridyl)pyrrolidin-1-yl]chromen-8-yl]ethylamino]benzoic acid 2,2,2-trifluoroacetic acid]
IC50 [1]: > 10000 nM | IC50 [2]: 500 to 1000 nM

COC12CC(C1)N(c1cc(=O)c3cc(C)cc(C(C)Nc4ccccc4C(=O)O)c3o1)C2 (single isomer, unassigned) [Example 111, 2-[1-[2-(4-Methoxy-2-azabicyclo[2.1.1]hexan-2-yl)-6-methyl-4-oxo-chromen-8-yl]ethylamino]benzoic acid]
IC50 [1]: > 10000 nM | IC50 [2]: > 10000 nM

Cc1cc(C(C)Nc2ccccc2C(=O)O)c2oc(N3CCC(C)(C)CC3)c(-c3cnoc3)c(=O)c2c1 (single isomer, unassigned) [Example 53]
IC50 [1]: 500 to 1000 nM | IC50 [2]: < 500 nM

Cc1cc(C(C)Nc2ccccc2C(=O)O)c2oc(N3CCOC(c4ccc(S(C)(=O)=O)cc4)C3)cc(=O)c2c1 (centres unmarked) [Example 85, 2-[1-[6-Methyl-2-[2-(4-methylsulfonylphenyl)morpholin-4-yl]-4-oxo-chromen-8-yl]ethylamino]benzoic acid]
IC50 [1]: 1000 to 5000 nM | IC50 [2]: 1000 to 5000 nM

Cc1c(N2Cc3ccc(F)cc3C2)oc2c(C(C)Nc3ccccc3C(=O)O)cc(F)cc2c1=O (single isomer, unassigned) [Example 319, 2-[1-[6-Fluoro-2-(5-fluoroisoindolin-2-yl)-3-methyl-4-oxo-chromen-8-yl]ethylamino]benzoic acid]
IC50 [1]: 500 to 1000 nM | IC50 [2]: < 500 nM

Cc1cc(C(C)Nc2ccccc2C(=O)O)c2oc(N3CCC(C)(C)CC3)c(-c3cnoc3)c(=O)c2c1 (single isomer, unassigned) [Example 54, 2-[1-[2-(4,4-Dimethyl-1-piperidyl)-3-isoxazol-4-yl-6-methyl-4-oxo-chromen-8-yl]ethylamino]benzoic acid]
IC50 [1]: > 10000 nM | IC50 [2]: > 10000 nM

Cc1cc(C(C)Nc2ccccc2C(=O)O)c2oc(N3CCC(C)(C)CC3)c(C#N)c(=O)c2c1 (centres unmarked) [Example 392, 2-[1-[3-Cyano-2-(4,4-dimethyl-1-piperidyl)-6-methyl-4-oxo-chromen-8-yl]ethylamino]benzoic acid 2,2,2-trifluoroacetic acid]
IC50 [1]: 500 to 1000 nM | IC50 [2]: 500 to 1000 nM

CC(Nc1ccccc1C(=O)O)c1cc(C(F)(F)F)cc2c(=O)cc(N3Cc4ccc(C#N)cc4C3)oc12 (single isomer, unassigned; isomer 2) [Example 338, 2-[1-[2-(5-Cyanoisoindolin-2-yl)-4-oxo-6-(trifluoromethyl)chromen-8-yl]ethylamino]benzoic acid, Isomer 2]
IC50 [1]: < 500 nM | IC50 [2]: < 500 nM

Cc1cc(C(C)Nc2ccc(Cl)nc2C(=O)O)c2oc(N3Cc4ccccc4C3)cc(=O)c2c1 (centres unmarked) [Example 296, 6-Chloro-3-[1-(2-isoindolin-2-yl-6-methyl-4-oxo-chromen-8-yl)ethylamino]pyridine-2-carboxylic acid]
IC50 [1]: 1000 to 5000 nM | IC50 [2]: 500 to 1000 nM

COC12CC(C1)N(c1cc(=O)c3cc(C)cc(C(C)Nc4ccccc4C(=O)O)c3o1)C2 (single isomer, unassigned) [Example 112, 2-[1-[2-(4-Methoxy-2-azabicyclo[2.1.1]hexan-2-yl)-6-methyl-4-oxo-chromen-8-yl]ethylamino]benzoic acid]
IC50 [1]: 1000 to 5000 nM | IC50 [2]: 500 to 1000 nM

Cc1cc(C(C)Nc2ccccc2C(=O)O)c2oc(N3CCCC4(CCOCC4)C3)cc(=O)c2c1 (centres unmarked) [Example 76, 2-[1-[6-Methyl-2-(9-oxa-2-azaspiro[5.5]undecan-2-yl)-4-oxo-chromen-8-yl]ethylamino]benzoic acid]
IC50 [1]: 5000 to 10000 nM | IC50 [2]: 500 to 1000 nM

Cc1cc(C(C)Nc2ccccc2C(=O)O)c2oc(N3CCC(C)(C)CC3)c(C3CC3)c(=O)c2c1 (single isomer, unassigned) [Example 51, 2-[1-[3-Cyclopropyl-2-(4,4-dimethyl-1-piperidyl)-6-methyl-4-oxo-chromen-8-yl]ethyalmino]benzoic acid]
IC50 [1]: 1000 to 5000 nM | IC50 [2]: < 500 nM

Cc1cc(C(C)Nc2ccccc2C(=O)O)c2oc(N3CC4(C3)CC(F)(F)C4)cc(=O)c2c1 (single isomer, unassigned) [Example 222, 2-[1[2-(6,6-Difluoro-2-azaspiro[3.3]heptan-2-yl)-6-methyl-4-oxo-chromen-8-yl]ethylamino]benzoic acid 2,2,2-trifluoroacetic acid]
IC50 [1]: 1000 to 5000 nM | IC50 [2]: < 500 nM
